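Cells were grown in 96-well plates and exposed to each compound for 48 hours at five concentrations; endpoints were interpolated linearly between bracketing concentrations, or set to the highest concentration if not reached. GI50 is the concentration that inhibits growth by half.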 The source made the active and inactive calls. Rule as the data show it: active = GI50 up to about 1.1 µM and inactive = higher.
Columns and labels:
Assay in all cases: NCI tumour cell line growth inhibition, 48 h
A549 = test system: A549
HCC 2998 = test system: HCC 2998
HL-60 = test system: HL-60
HOP-62 = test system: HOP-62
LOX IMVI = test system: LOX IMVI
MDA-MB-435 = test system: MDA-MB-435
NCI-H226 = test system: NCI-H226
NCI-H522 = test system: NCI-H522
OVCAR-3 = test system: OVCAR-3
OVCAR-4 = test system: OVCAR-4
OVCAR-5 = test system: OVCAR-5
PC-3 = test system: PC-3
RXF 393 = test system: RXF 393
SNB-19 = test system: SNB-19
SR = test system: SR
SW-620 = test system: SW-620
UACC-257 = test system: UACC-257
UACC-62 = test system: UACC-62
UO-31 = test system: UO-31

CN(C)S(=O)(=O)Nc1ccccn1
GI50 (A549): > 100 µM (inactive)
GI50 (HCC 2998): > 100 µM (inactive)
GI50 (HL-60): > 100 µM (inactive)
GI50 (HOP-62): > 100 µM (inactive)
GI50 (LOX IMVI): > 100 µM (inactive)
GI50 (MDA-MB-435): > 100 µM (inactive)
GI50 (NCI-H226): > 100 µM (inactive)
GI50 (NCI-H522): > 100 µM (inactive)
GI50 (OVCAR-3): > 100 µM (inactive)
GI50 (OVCAR-4): > 100 µM (inactive)
GI50 (OVCAR-5): > 100 µM (inactive)
GI50 (PC-3): > 100 µM (inactive)
GI50 (RXF 393): > 100 µM (inactive)
GI50 (SNB-19): > 100 µM (inactive)
GI50 (SR): > 100 µM (inactive)
GI50 (SW-620): > 100 µM (inactive)
GI50 (UACC-257): > 100 µM (inactive)
GI50 (UACC-62): > 100 µM (inactive)
GI50 (UO-31): > 100 µM (inactive)

OCCCCCNc1ccnc2cc(Cl)ccc12
GI50 (A549): > 100 µM (inactive)
GI50 (HCC 2998): > 100 µM (inactive)
GI50 (HL-60): 22 µM (inactive)
GI50 (HOP-62): > 100 µM (inactive)
GI50 (LOX IMVI): > 10 µM (inactive)
GI50 (NCI-H226): 74.5 µM (inactive)
GI50 (NCI-H522): 87.5 µM (inactive)
GI50 (OVCAR-3): 65.5 µM (inactive)
GI50 (OVCAR-4): > 100 µM (inactive)
GI50 (OVCAR-5): 83.2 µM (inactive)
GI50 (RXF 393): > 100 µM (inactive)
GI50 (SNB-19): > 100 µM (inactive)
GI50 (SR): 19.5 µM (inactive)
GI50 (SW-620): > 100 µM (inactive)
GI50 (UACC-257): > 100 µM (inactive)
GI50 (UACC-62): > 100 µM (inactive)
GI50 (UO-31): 24.2 µM (inactive)

C#CCN(N=O)C(=O)NC(CCCNC(=O)OCc1ccccc1)C(=O)OCc1ccccc1 (stereo unspecified)
GI50 (A549): > 100 µM (inactive)
GI50 (HCC 2998): > 100 µM (inactive)
GI50 (HL-60): 20.1 µM (inactive)
GI50 (HOP-62): > 100 µM (inactive)
GI50 (LOX IMVI): 52.4 µM (inactive)
GI50 (NCI-H226): > 100 µM (inactive)
GI50 (NCI-H522): 13.2 µM (inactive)
GI50 (OVCAR-3): > 100 µM (inactive)
GI50 (OVCAR-4): > 100 µM (inactive)
GI50 (OVCAR-5): > 100 µM (inactive)
GI50 (RXF 393): 22.6 µM (inactive)
GI50 (SNB-19): > 100 µM (inactive)
GI50 (SR): 34.8 µM (inactive)
GI50 (SW-620): 55.8 µM (inactive)
GI50 (UACC-257): 77.1 µM (inactive)
GI50 (UACC-62): > 100 µM (inactive)
GI50 (UO-31): > 100 µM (inactive)

CCN1C(=O)/C(=C\c2coc3ccccc3c2=O)SC1=S
GI50 (A549): > 100 µM (inactive)
GI50 (HCC 2998): > 100 µM (inactive)
GI50 (HL-60): > 100 µM (inactive)
GI50 (HOP-62): 61.9 µM (inactive)
GI50 (LOX IMVI): 42.1 µM (inactive)
GI50 (NCI-H226): > 100 µM (inactive)
GI50 (NCI-H522): 91.4 µM (inactive)
GI50 (OVCAR-3): > 100 µM (inactive)
GI50 (OVCAR-4): > 100 µM (inactive)
GI50 (OVCAR-5): > 100 µM (inactive)
GI50 (RXF 393): 36.5 µM (inactive)
GI50 (SNB-19): > 100 µM (inactive)
GI50 (SR): 36.6 µM (inactive)
GI50 (SW-620): 49.4 µM (inactive)
GI50 (UACC-257): > 100 µM (inactive)
GI50 (UACC-62): 68.7 µM (inactive)
GI50 (UO-31): > 100 µM (inactive)

O=C(Nc1nc(C23CC4CC(CC(C4)C2)C3)cs1)c1cc2cc(Cl)ccc2oc1=O
GI50 (A549): > 100 µM (inactive)
GI50 (HCC 2998): > 100 µM (inactive)
GI50 (HL-60): > 100 µM (inactive)
GI50 (HOP-62): > 100 µM (inactive)
GI50 (LOX IMVI): > 100 µM (inactive)
GI50 (MDA-MB-435): > 100 µM (inactive)
GI50 (NCI-H226): > 100 µM (inactive)
GI50 (NCI-H522): > 100 µM (inactive)
GI50 (OVCAR-3): > 100 µM (inactive)
GI50 (OVCAR-4): > 100 µM (inactive)
GI50 (OVCAR-5): > 100 µM (inactive)
GI50 (PC-3): > 100 µM (inactive)
GI50 (RXF 393): > 100 µM (inactive)
GI50 (SNB-19): > 100 µM (inactive)
GI50 (SR): > 100 µM (inactive)
GI50 (SW-620): > 100 µM (inactive)
GI50 (UACC-257): > 100 µM (inactive)
GI50 (UO-31): > 100 µM (inactive)

CSC1CC2C(CC1(C)SC)C2(C)C (stereo unspecified)
GI50 (A549): 32.7 µM (inactive)
GI50 (HCC 2998): 87.1 µM (inactive)
GI50 (HL-60): 20.2 µM (inactive)
GI50 (HOP-62): > 100 µM (inactive)
GI50 (LOX IMVI): 30.7 µM (inactive)
GI50 (NCI-H226): 24.7 µM (inactive)
GI50 (NCI-H522): > 100 µM (inactive)
GI50 (OVCAR-3): 37.9 µM (inactive)
GI50 (OVCAR-4): 62.8 µM (inactive)
GI50 (OVCAR-5): 40.8 µM (inactive)
GI50 (RXF 393): 56.5 µM (inactive)
GI50 (SNB-19): 46.9 µM (inactive)
GI50 (SR): 30.8 µM (inactive)
GI50 (SW-620): > 100 µM (inactive)
GI50 (UACC-257): 29.9 µM (inactive)
GI50 (UACC-62): 60.7 µM (inactive)
GI50 (UO-31): 19.9 µM (inactive)

S=C1OC2CCCC[C@H]2O1 (stereo partly specified)
GI50 (A549): > 100 µM (inactive)
GI50 (HCC 2998): > 100 µM (inactive)
GI50 (HL-60): > 100 µM (inactive)
GI50 (HOP-62): > 100 µM (inactive)
GI50 (LOX IMVI): > 100 µM (inactive)
GI50 (NCI-H226): > 100 µM (inactive)
GI50 (NCI-H522): > 100 µM (inactive)
GI50 (OVCAR-3): > 100 µM (inactive)
GI50 (OVCAR-4): > 100 µM (inactive)
GI50 (OVCAR-5): > 100 µM (inactive)
GI50 (RXF 393): > 100 µM (inactive)
GI50 (SNB-19): > 100 µM (inactive)
GI50 (SR): > 100 µM (inactive)
GI50 (SW-620): > 100 µM (inactive)
GI50 (UACC-257): > 100 µM (inactive)
GI50 (UACC-62): > 100 µM (inactive)
GI50 (UO-31): > 100 µM (inactive)

O=C(c1ccccc1)c1nnc(C(=O)c2ccccc2)nn1
GI50 (A549): > 344 µM (inactive)
GI50 (HCC 2998): 36.3 µM (inactive)
GI50 (HL-60): > 344 µM (inactive)
GI50 (HOP-62): > 344 µM (inactive)
GI50 (LOX IMVI): 282 µM (inactive)
GI50 (NCI-H226): > 344 µM (inactive)
GI50 (NCI-H522): 134 µM (inactive)
GI50 (OVCAR-3): > 344 µM (inactive)
GI50 (OVCAR-4): > 344 µM (inactive)
GI50 (OVCAR-5): > 344 µM (inactive)
GI50 (RXF 393): 151 µM (inactive)
GI50 (SNB-19): > 344 µM (inactive)
GI50 (SR): 4.45 µM (inactive)
GI50 (SW-620): > 344 µM (inactive)
GI50 (UACC-257): > 344 µM (inactive)
GI50 (UACC-62): > 344 µM (inactive)
GI50 (UO-31): > 344 µM (inactive)

Cn1c(=N)n[n+]([O-])c2ccccc21
GI50 (A549): 7.38 µM (inactive)
GI50 (HL-60): 2.79 µM (inactive)
GI50 (HOP-62): 2.45 µM (inactive)
GI50 (LOX IMVI): 1.62 µM (inactive)
GI50 (MDA-MB-435): 0.541 µM (active)
GI50 (NCI-H226): 6.98 µM (inactive)
GI50 (NCI-H522): 3.72 µM (inactive)
GI50 (OVCAR-3): 0.895 µM (active)
GI50 (OVCAR-4): 2.48 µM (inactive)
GI50 (OVCAR-5): 2.25 µM (inactive)
GI50 (PC-3): 5.6 µM (inactive)
GI50 (SW-620): 2.12 µM (inactive)
GI50 (UACC-257): 2.71 µM (inactive)
GI50 (UACC-62): 1.09 µM (active)
GI50 (UO-31): 3.22 µM (inactive)

CN1C(c2ccccc2)CC(=O)C(N)C1c1ccccc1 (stereo unspecified)
GI50 (A549): 38.7 µM (inactive)
GI50 (HCC 2998): 20.8 µM (inactive)
GI50 (HL-60): 20.6 µM (inactive)
GI50 (HOP-62): > 92.5 µM (inactive)
GI50 (LOX IMVI): 18 µM (inactive)
GI50 (NCI-H226): 39.4 µM (inactive)
GI50 (NCI-H522): 17 µM (inactive)
GI50 (OVCAR-3): 33.7 µM (inactive)
GI50 (OVCAR-4): 49.4 µM (inactive)
GI50 (OVCAR-5): 35.4 µM (inactive)
GI50 (RXF 393): 24.4 µM (inactive)
GI50 (SNB-19): 56.9 µM (inactive)
GI50 (SR): 25 µM (inactive)
GI50 (SW-620): 19.9 µM (inactive)
GI50 (UACC-257): 30.3 µM (inactive)
GI50 (UACC-62): 27.2 µM (inactive)
GI50 (UO-31): 25.5 µM (inactive)

COC1C(O)C(C)OC(O[C@H]2CC[C@@]3(C)C(CC[C@@H]4[C@@H]3CC[C@]3(C)[C@@H](C(C)OC5OC(CO)C(O)C(O)C5O)CC[C@]43O)C2)C1O (stereo partly specified)
GI50 (A549): > 25 µM (inactive)
GI50 (HCC 2998): > 25 µM (inactive)
GI50 (HL-60): > 25 µM (inactive)
GI50 (HOP-62): > 25 µM (inactive)
GI50 (LOX IMVI): > 25 µM (inactive)
GI50 (MDA-MB-435): > 25 µM (inactive)
GI50 (NCI-H226): > 25 µM (inactive)
GI50 (NCI-H522): > 25 µM (inactive)
GI50 (OVCAR-3): > 25 µM (inactive)
GI50 (OVCAR-4): > 25 µM (inactive)
GI50 (OVCAR-5): > 25 µM (inactive)
GI50 (PC-3): > 25 µM (inactive)
GI50 (SNB-19): > 25 µM (inactive)
GI50 (SR): > 25 µM (inactive)
GI50 (SW-620): > 25 µM (inactive)
GI50 (UACC-257): > 25 µM (inactive)
GI50 (UACC-62): > 25 µM (inactive)
GI50 (UO-31): > 25 µM (inactive)

O=C1C2C3C=CC(C2C(=O)N1COP(=O)(O)O)C1C2C(=O)N(COP(=O)(O)O)C(=O)C2C31 (stereo unspecified)
GI50 (A549): > 69.7 µM (inactive)
GI50 (HCC 2998): > 100 µM (inactive)
GI50 (HL-60): 15.5 µM (inactive)
GI50 (HOP-62): > 100 µM (inactive)
GI50 (LOX IMVI): > 43.4 µM (inactive)
GI50 (NCI-H226): > 100 µM (inactive)
GI50 (NCI-H522): > 100 µM (inactive)
GI50 (OVCAR-3): > 100 µM (inactive)
GI50 (OVCAR-4): > 100 µM (inactive)
GI50 (OVCAR-5): > 100 µM (inactive)
GI50 (RXF 393): > 100 µM (inactive)
GI50 (SNB-19): > 100 µM (inactive)
GI50 (SR): 17.5 µM (inactive)
GI50 (SW-620): > 45.7 µM (inactive)
GI50 (UACC-257): > 100 µM (inactive)
GI50 (UACC-62): > 100 µM (inactive)
GI50 (UO-31): > 100 µM (inactive)

Reference: ChEMBL document CHEMBL1201862, “PubChem BioAssay data set” (2004)
